The source of these data is PMC5999399 (Journal of medicinal chemistry, 2017).

Broadly, the IC50 is the concentration that inhibits the measured activity by half. For orientation: EC50 means the concentration that produces a half-maximal response.

Assay [1] concerns the target T1, human MC5R (hMC5R) (Homo sapiens, UniProt P33032). Particulars: ref previously published data, cited from earlier work; for hMC5R % BE: [125I]NDP-α-MSH displacement at 10 μM.
In assay [2] the target is T1, human MC5R (hMC5R). Conditions: cAMP at 10 μM, in relation to MT-II; ref previously published data; cited from earlier work.
The target in assay [3] is T2, human MC3R (hMC3R) (Homo sapiens, UniProt P41968). Particulars: ref previously published data, cited from earlier work; for hMC3R % max effect: cAMP at 10 μM, in relation to MT-II.
Assay [4] concerns the target T3, human MC1R (hMC1R) (Homo sapiens, UniProt Q01726). Particulars: cAMP at 10 μM, in relation to MT-II; ref previously published data; cited from earlier work.
In assay [5] the target is T2, human MC3R (hMC3R). Particulars: [125I]NDP-α-MSH displacement at 10 μM; ref previously published data; cited from earlier work.
In assay [6] the target is T3, human MC1R (hMC1R). Particulars: [125I]NDP-α-MSH displacement at 10 μM; ref previously published data; cited from earlier work.
Assay [7] has as its target T4, human MC4R (hMC4R) (Homo sapiens, UniProt P32245). Particulars: cAMP at 10 μM, in relation to MT-II; ref previously published data; cited from earlier work.
The target in assay [8] is T4, human MC4R (hMC4R). Particulars: [125I]NDP-α-MSH displacement at 10 μM; ref previously published data; cited from earlier work.
Assay [9] concerns the target T3, human MC1R (hMC1R). Put plainly: Adenylate cyclase. Conditions: EC50 ratio. It counts as cell-based.

T3 sequence (Q01726 whole entry): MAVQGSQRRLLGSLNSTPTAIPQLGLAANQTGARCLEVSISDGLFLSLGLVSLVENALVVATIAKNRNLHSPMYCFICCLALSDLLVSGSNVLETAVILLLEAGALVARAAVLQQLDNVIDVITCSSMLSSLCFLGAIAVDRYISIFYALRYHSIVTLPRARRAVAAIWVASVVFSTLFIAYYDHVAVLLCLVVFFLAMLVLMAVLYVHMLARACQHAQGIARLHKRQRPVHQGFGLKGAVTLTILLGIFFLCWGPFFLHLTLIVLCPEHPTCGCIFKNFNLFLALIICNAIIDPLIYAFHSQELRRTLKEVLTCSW
T2 sequence (P41968 whole entry): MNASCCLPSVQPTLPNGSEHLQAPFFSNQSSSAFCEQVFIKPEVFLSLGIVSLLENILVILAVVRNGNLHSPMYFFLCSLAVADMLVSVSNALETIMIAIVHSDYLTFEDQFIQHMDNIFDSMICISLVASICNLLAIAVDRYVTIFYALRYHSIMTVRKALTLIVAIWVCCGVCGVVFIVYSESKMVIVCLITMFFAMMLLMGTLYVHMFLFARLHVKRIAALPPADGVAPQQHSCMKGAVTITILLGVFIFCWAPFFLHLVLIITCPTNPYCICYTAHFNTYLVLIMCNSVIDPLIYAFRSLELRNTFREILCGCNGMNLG
T4 sequence (P32245 whole entry): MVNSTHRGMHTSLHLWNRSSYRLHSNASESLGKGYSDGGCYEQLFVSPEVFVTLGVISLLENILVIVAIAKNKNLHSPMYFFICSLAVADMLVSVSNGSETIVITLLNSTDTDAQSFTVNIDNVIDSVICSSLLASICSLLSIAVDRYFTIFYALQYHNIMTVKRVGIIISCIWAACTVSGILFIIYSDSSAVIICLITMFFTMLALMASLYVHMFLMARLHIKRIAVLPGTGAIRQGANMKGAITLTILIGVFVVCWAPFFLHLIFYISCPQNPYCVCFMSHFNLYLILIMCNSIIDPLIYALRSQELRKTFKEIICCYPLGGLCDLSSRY
T1 sequence (P33032 whole entry): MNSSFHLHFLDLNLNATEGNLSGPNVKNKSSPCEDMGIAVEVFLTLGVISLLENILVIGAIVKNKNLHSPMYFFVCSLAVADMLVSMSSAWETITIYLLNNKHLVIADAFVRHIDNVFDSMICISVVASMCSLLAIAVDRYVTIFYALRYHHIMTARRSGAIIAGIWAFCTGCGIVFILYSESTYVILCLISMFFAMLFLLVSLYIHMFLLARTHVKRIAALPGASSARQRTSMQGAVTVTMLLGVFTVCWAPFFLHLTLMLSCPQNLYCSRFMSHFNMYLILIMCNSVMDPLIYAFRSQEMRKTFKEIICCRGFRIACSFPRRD

For the substance “Ac-Ser-Tyr-Ser-Met-Glu-His-Phe-Arg-Trp-Gly-Lys-Pro-Val-NH2 [Compound 14]”, the “hMC5R % BE” value on human MC5R (hMC5R) [1] is 100%. For the same substance, the “hMC5R % max effect” value on human MC5R (hMC5R) [2] is reported as 100%. Besides, the “hMC3R % max effect” value on human MC3R (hMC3R) [3] is 100%. For the same substance, the “hMC1R % max effect” value on human MC1R (hMC1R) [4] is recorded as 100%. At human MC3R (hMC3R) [5], the “hMC3R % BE” value is 100%. Besides, the “hMC1R % BE” value at human MC1R (hMC1R) [6] is given as 100%.
“Ac-Tyr^1-Val^2-Nle^3-Gly^4-His^5-D-Phe^6-Arg^7-Trp^8-Asp^9-Arg^10-Phe^11-Gly^12-NH2 [Compound 13]”: the “hMC5R % BE” value at human MC5R (hMC5R) [1] is recorded as 100%. The “hMC5R % max effect” value at human MC5R (hMC5R) [2] was 100%. For the same substance, the “hMC1R % max effect” value at human MC1R (hMC1R) [4] was 100%. Also, the “hMC4R % max effect” value on human MC4R (hMC4R) [7] is listed as 100%. In addition, the “hMC3R % BE” value at human MC3R (hMC3R) [5] is 100%. In addition, the “hMC1R % BE” value at human MC1R (hMC1R) [6] is 100%. Also, at human MC4R (hMC4R) [8], the “hMC4R % BE” value was 100%.
In the case of “H-Tyr-Val-Nle-Gly-His-D-Nal(2)-Arg-D-Trp-Asp-Arg-Phe-Gly-NH2 [Compound 1]”, the “hMC5R % BE” value at human MC5R (hMC5R) [1] was 100%. The half-maximal inhibitory concentration (IC50) in the assay with human MC5R (hMC5R) [1] (read-out: hMC5R IC50, 50% specific binding) is 0.0035 ± 0.0005 µM. The “hMC5R % max effect” value at human MC5R (hMC5R) [2] is given as 6%. Moreover, the “hMC3R % max effect” value on human MC3R (hMC3R) [3] was 6%. Also, in the assay with human MC3R (hMC3R) [3] (read-out: hMC3R EC50, cAMP accumulation), the EC50 was 0.3 ± 0.006 µM. Besides, on human MC3R (hMC3R) [5], the “hMC3R % BE” value is 100%.
For “H-Tyr^1-Val^2-Met^3-Gly^4-His^5-Phe^6-Arg^7-Trp^8–Asp^9-Arg^10-Phe^11-Gly^12-NH2 [Compound 12]”, the “hMC5R % BE” value on human MC5R (hMC5R) [1] was 100%. The “increase in potency to hMC1R compared to γ-MSH” value on human MC1R (hMC1R) [9] came to 3 fold. In addition, on human MC1R (hMC1R) [4], the “hMC1R % max effect” value is 100%. Also, the “hMC4R % max effect” value at human MC4R (hMC4R) [7] is on record as 76%. Moreover, the “hMC3R % BE” value on human MC3R (hMC3R) [5] is recorded as 100%. In addition, the “hMC1R % BE” value at human MC1R (hMC1R) [6] was 100%. Moreover, the “hMC4R % BE” value at human MC4R (hMC4R) [8] is 100%.
